Several values for one entry are separate records, joined by “and”; a condition that tells them apart may be missing. Equal values may be shown once. Read-outs that look alike come from different tables or passages of the source.
Experiments:
[1] = system: A549, Calu-3, and NCI-H292 cell line; test: pDNA transfection in pulmonary cell lines, statements not tied to one line; assay type: cell-based; conditions: whatever the cell line considered, pCMVLuc, N/P 1-5
Description: (§1) Lipids were freshly solubilized in ethanol at 1.24 mM concentration. Typically, 40.40 μL of 60 μM solution of DNA (pCMVLuc) in 4.5% glucose was added to the lipid (either 2.00, 5.85 or 9.75 μL deposited at the bottom of a 500 μL eppendorf tube and dried under vacuum). After gentle vortex agitation (30 sec), the complexes were allowed to stand at room temperature for 30 min before addition (10 μL, i.e. 0.2 μg DNA) into each well (triplicate). Cells were then let to grow in the incubator without further handling. Luciferase gene expression was assessed 24 h later using a commercial kit according to the manufacturer's protocol (Promega, Charbonnières, France). Cells were washed with PBS (100 μL) and lyzed with the Promega lysis buffer (20 μL). After agitation for 15 min, PBS (150 μL) was added. A 5 μL aliquot was transferred to a white microplate and luminescence was recorded for 1 sec with a luminometer (Berthold Centro LB960 XS, Thoiry, France) upon addition of the luciferin substrate (35 μL). Value for each sample is the mean of triplicate determinations (±SD).
The ability of compounds 1-9 to transfect plasmid DNA was assessed for the following cell lines: A549 cells (alveolar, human lung carcinoma), Calu-3 cells (bronchial, epithelial lung adenocarcinoma), and NCI-H292 cells (bronchial, human lung mucoepidermoid carcinoma). The results concerning transfection activity and LDH release for compounds 1 to 9 are shown in FIGS. 19A, 19B and 19C for cell line A549, Calu-3 and NCI-H292, respectively.

BHK-21 cells [2] = test: LDH release assay, BHK-21 cells
[3] = system: A549, Calu-3, and NCI-H292 cell line; test: LDH release in pulmonary cell lines, statements not tied to one line; assay type: cell-based; conditions: cell lines investigated, pDNA lipoplexes
Description: Lactate dehydrogenase (LDH) release was used to assess the cytotoxicity of the formulations used in the transfection experiments described as outlined. Typically, at the end of each transfection experiment, the culture medium was removed and placed in another 96-wells plate. LDH activity was measured using a commercial kit (Cytotoxicity Detection Kit Plus, Roche Applied Science) according to the manufacturer's instructions. LDH activity was expressed as the percentage of the maximal LDH release obtained after treatment of the cells with the lysis solution kit (5 μL). Less than 10% LDH release was regarded as a measure of non-significant toxicity. Value for each sample is the mean of triplicate determinations (±SD).

[4] = Hydrolytic stability of liposomes by 31P-NMR; conditions: Table 3, liposomes
Description: For hydrolysis rate measurements using ^31P-NMR, liposomes were obtained by a solvent injection technique. […] The lipids (10 μmol) were dissolved in PrOH (200 μL) and then injected with a syringe with a flow rate of ca. 600 μL/min and a stirring speed of 400 rpm into the appropriate aqueous buffer medium (either Hepes 10 mM pH 7.4 or AcOK/AcOH 10 mM pH 4.5).
The hydrolytic stability of CPDCs/conjugates under neutral and acidic conditions was evaluated in a model experiment involving ^31P-NMR measurements. Phosphotriesters and phosphodiesters display ^31P chemical shifts differing by 5-6 ppm allowing a precise monitoring of the hydrolysis reaction. CPDCs/conjugates were formulated into liposomes using an injection technique.[47] Liposomes were prepared at pH 7.4 and pH 4.5, and incubated at 37° C. and hydrolysis was monitored by ^31P-NMR measurements.
For hydrolysis rate measurements involving ^31P-NMR spectoscopy and BET intercallation assays, liposomes were prepared by a solvent injection technique. A dry lipid film (10 μmol) was dissolved in i-PrOH (200 μL) and then injected with a syringe (flow rate: 600 μL/min) under stirring (stirring speed: 400 rpm) in the middle of the appropriate aqueous buffer medium (either Hepes 10 mM, pH 7.4 or AcOK/AcOH 10 mM, pH 4.5), at 22° C.
The cationic lipids were formulated into liposomes using an injection technique as described hereabove. Liposomes were prepared at pH 7.4 and pH 4.5, and incubated at 37° C. Periodical acquisition of ^31P-NMR spectra allowed determination of the time t, required for 50% hydrolysis (Table 3).

BHK-21 cells [5] = test: pDNA (pCMVLuc) transfection in BHK-21 cells; assay type: cell-based, Syrian hamster; conditions: for pDNA transfection efficiency, in words: BHK-21, pCMVLuc, 10% FCS, N/P 1, 3, 5
Description: as §1
The ability to transfect siRNA into U87Luc cells and pCMVLuc pDNA into BHK-21 was assessed for each synthetized analogue as shown in parts A and B hereabove.

[6] = Light scattering: particle size and zeta potential of lipoplexes; assay type: physicochemical; conditions: pCMVLuc lipoplexes, 5% glucose, N/P 3, 25° C.
Description: The average particle size of the liposomes and lipoplexes was measured by photon correlation spectroscopy using a Zetasizer nanoZS apparatus (Malvern Instruments, Paris, France). All measurements were conducted at 25° C. Data were analyzed using the multimodal number distribution software supplied with the instrument. For the preparation of lipoplexes, lipids were freshly solubilized in ethanol (1.24 mM) and deposited (60 μL) at the bottom of a 1.5 mL eppendorf tube. Volatiles were removed under reduced pressure to obtain a dry film. Typically, 404 μL of 60 μM solution of pCMVLuc in 4.5% glucose was added to the lipid. After 30 seconds vortexing and 15 minutes standing at room temperature, the complexes were diluted in 4.5 glucose (1096 μL) for measurements. Value for each sample is the mean of triplicate determinations (±SD).

16HBE cells = test: Cell mitochondrial activity (MTT assay); assay type: cell-based; conditions: 48 h
Description: Cells were grown in culture flasks (Becton-Dickinson) with DMEM culture medium supplemented with 10% FBS, 100 U/mL penicillin, 100 mg/mL streptomycin, 2 mM L-glutamine, and 5 mM Hepes. Culture was carried out at 37° C., in a 5% CO2 and humidified atmosphere. At confluence, cells were released with trypsin (0.5% in PBS), counted and transferred into a 96-well plate (Becton-Dickinson) at a density of 6,000 cells/well. On the next day (24 h later), culture medium was changed to fresh DMEM medium supplemented with 10% FBS before addition of lipoplexes (100 μL) prepared as described above. After a 48 h incubation period at 37° C., culture supernatant was removed, cells were carefully washed with PBS and 0.5 mg/mL MTT (1 mL) in complete culture medium was added. After a 2 h incubation period at 37° C., MTT solution was removed and DMSO (1 mL) was added to lyse cells and dissolve reduced MTT. Intensity of MTT reduction was then evaluated by measuring absorbance at 570 nm. Viability of cells treated with lipoplexes was expressed as the percentage of the absorbance measured in untreated cells. Value for each sample is the mean of triplicate determinations (±SD).

Sheep erythrocytes = test: Erythrocyte leakage (hemolysis) assay; assay type: cell-based; conditions: 2 h, 37° C.
Description: Hemolysis experiments were carried out according to a procedure described elsewhere. For recovery from washing steps, sheep red blood cells were centrifuged at 400 RCF for 10 min, and washed three times with 150 mM NaCl. […] Complete hemolysis was achieved using deionized water yielding the 100% control value. The negative control was obtained by suspension of RBC in phosphate buffer alone. The experiments were performed in triplicate.

U87-Luc cells = test: siRNA transfection, luciferase gene silencing; assay type: cell-based, human; design: Percentage of residual luciferase expression, Control siRNA, N/P: 25 / Percentage of residual luciferase expression, Control siRNA, N/P: 50 / Percentage of residual luciferase expression, Control siRNA, N/P: 100: concentration or dose not given beside the values; conditions: for luciferase silencing / siRNA transfection activity, in words: U87-Luc cells, siLuc vs control siRNA, 48 h, 10% FBS
U87Luc cells = test: LDH release assay, U87Luc cells; assay type: cell-based, human
BHK-21 cells [7] = system: BHK-21 cells

## 1,2-Dioleoyl-sn-glycero-3-{1-[(dodecyloxycarbonyl)oxy]-2-methylpropyl}phosphocholine chloride [PP178]
[1]
  pDNA transfection activity, in words: highest cell transfection levels
BHK-21 cells [2]; BHK-21, Part B pDNA lipoplexes, N/P 1, 3 and 5
  LDH release: 11%
[3]
  LDH release / cell toxicity, in words: significant LDH release
[4]; pH 4.5, 37° C.
  t1/2 (h), time required for 50% hydrolysis: 498 h
[4]; pH 7.4, 37° C.
  t1/2 (h), time required for 50% hydrolysis: 497 h
BHK-21 cells [5]
  pDNA transfection efficiency, in words: more effective than control phospholipid EDOPC
[6]
  Particle size (nm): 721.8 ± 65.7 nm
  Zeta potential (mV): +48.5 mV

## 1,2-Dioleoyl-sn-glycero-3-{4-[(dodecyloxy)-4-oxobutanoyloxy]methyl}phosphocholine chloride [PP93]
[1]
  pDNA transfection activity, in words: significant transfection activity
BHK-21 cells [5]; BHK-21, lipid/DOPE mixtures, 1:1 molar ratio
  effect of helper lipid DOPE on pDNA transfection efficiency: unable to assist DNA transfection when mixed with DOPE
[6]
  Particle size (nm): 364.3 ± 34.6 nm
  Zeta potential (mV): −18.0 mV

## Triton X-100 [TX100]
16HBE cells
  concentration enough to decrease cell viability: 20 to 40 µM
Sheep erythrocytes
  concentration achieving full membrane permeation to hemoglobin: 200 µM and 150 to 200 µM

## CCCCCCCCCCCCCCCC(=O)OC[C@H](COP(=O)(OCCOCCOCCOCCOCCOCCOCCOCCOCCOc1ccc(C(C)(C)CC(C)(C)C)cc1)OCC[N+](C)(C)C)OC(=O)CCCCCCCCCCCCCCC (stereo partly drawn) [PP431]
U87-Luc cells; Table 5, N/P 25
  Percentage of residual luciferase expression, Control siRNA, N/P: 25: 96.59%
  Percentage of residual luciferase expression, Luc-targeting siRNA, N/P: 25: 107.08%
U87-Luc cells; Table 5, N/P 50
  Percentage of residual luciferase expression, Control siRNA, N/P: 50: 64.76%
  Percentage of residual luciferase expression, Luc-targeting siRNA, N/P: 50: 75.27%
U87-Luc cells; Table 5, N/P 100
  Percentage of residual luciferase expression, Control siRNA, N/P: 100: 54.07%
  Percentage of residual luciferase expression, Luc-targeting siRNA, N/P: 100: 54.05%
BHK-21 cells [2]; Table 7, N/P 1
  Percentage of LDH release, Lipoplex with pDNA (BHK-21), N/P: 1: −0.09%
BHK-21 cells [2]; Table 7, N/P 3
  Percentage of LDH release, Lipoplex with pDNA (BHK-21), N/P: 3: 5.25%
BHK-21 cells [2]; Table 7, N/P 5
  Percentage of LDH release, Lipoplex with pDNA (BHK-21), N/P: 5: 2.38%
U87Luc cells; Table 7, N/P 25
  Percentage of LDH release, Lipoplex with siRNA (U87Luc), N/P: 25: −1.94%
U87Luc cells; Table 7, N/P 50
  Percentage of LDH release, Lipoplex with siRNA (U87Luc), N/P: 50: −1.83%
U87Luc cells; Table 7, N/P 100
  Percentage of LDH release, Lipoplex with siRNA (U87Luc), N/P: 100: 4.24%
BHK-21 cells [5]; Table 6, N/P 1
  Luciferase expression (RLU/well), N/P: 1: 4.90 × 10^5 RLU/well
BHK-21 cells [5]; Table 6, N/P 3
  Luciferase expression (RLU/well), N/P: 3: 6.45 × 10^6 RLU/well
BHK-21 cells [5]; Table 6, N/P 5
  Luciferase expression (RLU/well), N/P: 5: 6.75 × 10^6 RLU/well

## 1,2-Dioleoyl-sn-glycero-3-{1-[(dodecyloxycarbonyl)oxy]ethyl}phosphocholine chloride [PP120]
[1]
  pDNA transfection activity, in words: significant transfection activity
[3]
  LDH release / cell toxicity, in words: significant LDH release
[4]; pH 4.5, 37° C.
  t1/2 (h), time required for 50% hydrolysis: 27 h
[4]; pH 7.4, 37° C.
  t1/2 (h), time required for 50% hydrolysis: 29 h
BHK-21 cells [5]
  pDNA transfection efficiency, in words: more effective than control phospholipid EDOPC
[6]
  Particle size (nm): 819.3 ± 79.8 nm
  Zeta potential (mV): +62.9 mV

## CCCCCCCCC=CCCCCCCCC(=O)OCC(COP(=O)(OCCCCCCCCCCCC)OCC[N+](C)(C)C)OC(=O)CCCCCCCC=CCCCCCCCC (mixture of isomers) [PP514]
BHK-21 cells [7]
  Percentage of LDH release, Lipoplex with pDNA (BHK-21), N/P: 1: 0.15%
  Percentage of LDH release, Lipoplex with pDNA (BHK-21), N/P: 3: 0.76%
  Percentage of LDH release, Lipoplex with pDNA (BHK-21), N/P: 5: 0.46%
U87-Luc cells; Table 8, N/P 25
  Percentage of residual luciferase expression, Control siRNA, N/P: 25: 100.51%
  Percentage of residual luciferase expression, Luc-targeting siRNA, N/P: 25: 103.75%
U87-Luc cells; Table 8, N/P 50
  Percentage of residual luciferase expression, Control siRNA, N/P: 50: 98.50%
  Percentage of residual luciferase expression, Luc-targeting siRNA, N/P: 50: 101.21%
U87-Luc cells; Table 8, N/P 100
  Percentage of residual luciferase expression, Control siRNA, N/P: 100: 94.58%
  Percentage of residual luciferase expression, Luc-targeting siRNA, N/P: 100: 99.76%
U87-Luc cells
  luciferase silencing / siRNA transfection activity, in words: totally inefficient to transfect siRNA
U87Luc cells; Table 10, N/P 25
  Percentage of LDH release, Lipoplex with siRNA (U87Luc), N/P: 25: −2.36%
U87Luc cells; Table 10, N/P 50
  Percentage of LDH release, Lipoplex with siRNA (U87Luc), N/P: 50: −3.13%
U87Luc cells; Table 10, N/P 100
  Percentage of LDH release, Lipoplex with siRNA (U87Luc), N/P: 100: −3.29%
BHK-21 cells [5]
  pDNA transfection efficiency, in words: able to transfect DNA into cells
BHK-21 cells [5]; Table 9, N/P 1
  Luciferase expression (RLU/well), N/P: 1: 1.49 × 10^7 RLU/well
BHK-21 cells [5]; Table 9, N/P 3
  Luciferase expression (RLU/well), N/P: 3: 1.26 × 10^7 RLU/well
BHK-21 cells [5]; Table 9, N/P 5
  Luciferase expression (RLU/well), N/P: 5: 2.79 × 10^7 RLU/well

## CCCCCCCC/C=C\CCCCCCCC(=O)OCC(C[N+](C)(C)C)OC(=O)CCCCCCC/C=C\CCCCCCCC.[Cl-] (stereo not drawn) [DOTAP, 1,2-Dioleoyloxy-3-(N,N,N-trimethylamino)propyl chloride]
U87-Luc cells
  luciferase silencing / siRNA transfection activity, in words: unable to assist siRNA silencing activity

Source: patent US20140243391A1, “PHOSPHOLIPID-DETERGENT CONJUGATES AND USES THEREOF” (CENTRE NATIONAL DE LA RECHERCHE SCIENTIFIQUE, priority 2011, published 2014)
